# Measurements taken from patent EP4745137A1 (Gluetacs Therapeutics (Shanghai) Co., Ltd., priority 2023, dated 2025).
# Columns and labels:
# IKZF1 = biological target: T1, IKZF1 (Homo sapiens, UniProt Q13422+Q96SW2); test: Western-blot assay of substrate protein degradation in hPBMCs, IKZF1; format: cell-based; details: 24 hours of compound treatment, compounds tested at 50 nM and 500 nM (concentration of the table not stated)
# T1 construct: endogenous in cells; host or cells: hPBMCs (Milecell Biotechnologies)
# T1 sequence (Q13422 whole entry): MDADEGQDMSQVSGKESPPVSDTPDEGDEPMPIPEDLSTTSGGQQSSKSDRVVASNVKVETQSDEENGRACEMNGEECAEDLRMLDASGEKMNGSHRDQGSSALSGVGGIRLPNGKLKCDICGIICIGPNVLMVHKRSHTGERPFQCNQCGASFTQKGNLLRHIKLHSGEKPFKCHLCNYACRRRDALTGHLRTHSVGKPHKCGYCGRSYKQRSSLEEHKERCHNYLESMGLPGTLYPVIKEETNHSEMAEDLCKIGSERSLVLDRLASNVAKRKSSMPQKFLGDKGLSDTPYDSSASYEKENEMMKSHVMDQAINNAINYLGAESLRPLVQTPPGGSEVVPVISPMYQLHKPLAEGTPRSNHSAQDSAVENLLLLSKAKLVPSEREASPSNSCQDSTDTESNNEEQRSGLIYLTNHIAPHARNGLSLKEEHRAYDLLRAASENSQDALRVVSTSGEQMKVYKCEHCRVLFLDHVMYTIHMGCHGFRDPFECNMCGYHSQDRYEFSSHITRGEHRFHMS
# T1 sequence (Q96SW2 whole entry): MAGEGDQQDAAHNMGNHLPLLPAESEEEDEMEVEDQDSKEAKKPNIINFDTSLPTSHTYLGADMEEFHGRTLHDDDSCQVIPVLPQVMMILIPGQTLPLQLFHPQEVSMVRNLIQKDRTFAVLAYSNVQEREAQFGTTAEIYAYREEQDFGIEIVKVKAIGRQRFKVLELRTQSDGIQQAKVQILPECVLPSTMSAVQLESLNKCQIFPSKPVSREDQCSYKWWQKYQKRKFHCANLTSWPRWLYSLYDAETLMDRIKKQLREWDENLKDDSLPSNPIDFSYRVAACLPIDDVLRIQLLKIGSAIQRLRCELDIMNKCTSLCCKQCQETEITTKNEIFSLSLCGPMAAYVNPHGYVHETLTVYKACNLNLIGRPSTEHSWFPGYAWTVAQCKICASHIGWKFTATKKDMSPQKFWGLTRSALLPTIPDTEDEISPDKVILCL
# T1 sequence (Q16531 whole entry partner): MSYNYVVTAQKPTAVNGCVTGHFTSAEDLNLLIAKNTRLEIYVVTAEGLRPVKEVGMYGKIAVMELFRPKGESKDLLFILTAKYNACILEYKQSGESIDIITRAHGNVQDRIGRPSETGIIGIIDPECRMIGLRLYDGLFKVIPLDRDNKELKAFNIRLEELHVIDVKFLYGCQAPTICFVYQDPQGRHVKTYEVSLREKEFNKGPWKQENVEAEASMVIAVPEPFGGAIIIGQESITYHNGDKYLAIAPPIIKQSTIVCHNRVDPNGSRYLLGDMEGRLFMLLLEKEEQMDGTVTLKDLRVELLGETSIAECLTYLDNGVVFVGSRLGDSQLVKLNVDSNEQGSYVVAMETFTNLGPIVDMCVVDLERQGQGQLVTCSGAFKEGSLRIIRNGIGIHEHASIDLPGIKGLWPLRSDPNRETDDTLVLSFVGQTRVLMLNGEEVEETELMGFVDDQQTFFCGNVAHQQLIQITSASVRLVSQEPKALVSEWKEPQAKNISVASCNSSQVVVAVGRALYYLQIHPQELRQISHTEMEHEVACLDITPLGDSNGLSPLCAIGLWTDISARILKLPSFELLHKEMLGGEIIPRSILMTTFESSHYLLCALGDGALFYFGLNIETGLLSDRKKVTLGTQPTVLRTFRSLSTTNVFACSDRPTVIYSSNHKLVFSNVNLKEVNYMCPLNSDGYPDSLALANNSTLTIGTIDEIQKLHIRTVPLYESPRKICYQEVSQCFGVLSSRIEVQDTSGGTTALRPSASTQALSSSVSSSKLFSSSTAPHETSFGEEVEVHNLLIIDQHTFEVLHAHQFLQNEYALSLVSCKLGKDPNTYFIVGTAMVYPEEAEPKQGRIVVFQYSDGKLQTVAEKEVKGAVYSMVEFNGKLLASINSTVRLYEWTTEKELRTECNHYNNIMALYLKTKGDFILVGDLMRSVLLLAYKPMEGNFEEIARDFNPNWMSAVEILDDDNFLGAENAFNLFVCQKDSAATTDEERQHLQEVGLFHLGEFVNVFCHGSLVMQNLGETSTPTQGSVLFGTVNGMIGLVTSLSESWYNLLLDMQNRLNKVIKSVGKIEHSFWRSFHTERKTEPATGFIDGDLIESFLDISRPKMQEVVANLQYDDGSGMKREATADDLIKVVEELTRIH
# Jurkat = test: Tumor cell proliferation inhibition (CellTiter-Meiluncell Luminescent Cell Viability Assay), Jurkat; details: Homo sapiens, read-out: inhibitory activity (IC50, nM) against tumor cells proliferation, Jurkat
# Protocol: (§1) The tumor cells used herein were cultured in a cell culture medium listed in table 2 at 37°C in an incubator with 5% CO2. Prior to experimentation, all cell lines used were correctly identified by STR profiling, and tested negative for mycoplasma contamination using a mycoplasma detection kit through routine screenings.
# On the following day, the test compounds of the present disclosure were subjected to serial dilution. […] Subsequently, 0.5 µL of the test compound dilution was transferred into the 96-well plate containing the cells, with each well containing 100 µL of cell culture medium. […] Into the 96-well plate, the diluted test compounds and corresponding detection reagents were added, resulting in final test compound concentrations of 500 nM and 10 nM, respectively. The experimental procedure is described below using the diluted 2 µM test compound as an example.
# (§2) After the cells were treated with the compounds of the present disclosure for a specified period (the treatment durations were shown in Table 3), the cell viability assay reagent was added to the culture medium according to the kit's instructions to determine cell viability. […] All controls were treated using the same procedure as the compounds of the present disclosure. The growth inhibition curves for the compounds of the present disclosure were plotted using Prism GraphPad software, and the IC50 values were calculated therefrom.
# MM.1S = test: Tumor cell proliferation inhibition (CellTiter-Meiluncell Luminescent Cell Viability Assay), MM.1S; details: Homo sapiens, MM1.S, read-out: inhibitory activity (IC50, nM) against tumor cells proliferation, MM.1S
# Protocol: as §1
# (§3) On the following day, the test compounds of the present disclosure were subjected to serial dilution. […] Subsequently, 0.5 µL of the test compound dilution was transferred into the 96-well plate containing the cells, with each well containing 100 µL of cell culture medium. […] Into the 96-well plate, the diluted test compounds and corresponding detection reagents were added, resulting in final test compound concentrations of 500 nM and 10 nM, respectively.
# as §2
# WEE1 = biological target: T2, WEE1 (Homo sapiens, UniProt P30291+Q96SW2); test: Western-blot assay of substrate protein degradation in hPBMCs, WEE1; format: cell-based; details: 24 hours of compound treatment, compounds tested at 50 nM and 500 nM (concentration of the table not stated)
# T2 construct: endogenous in cells; host or cells: hPBMCs (Milecell Biotechnologies)
# T2 sequence (P30291 whole entry): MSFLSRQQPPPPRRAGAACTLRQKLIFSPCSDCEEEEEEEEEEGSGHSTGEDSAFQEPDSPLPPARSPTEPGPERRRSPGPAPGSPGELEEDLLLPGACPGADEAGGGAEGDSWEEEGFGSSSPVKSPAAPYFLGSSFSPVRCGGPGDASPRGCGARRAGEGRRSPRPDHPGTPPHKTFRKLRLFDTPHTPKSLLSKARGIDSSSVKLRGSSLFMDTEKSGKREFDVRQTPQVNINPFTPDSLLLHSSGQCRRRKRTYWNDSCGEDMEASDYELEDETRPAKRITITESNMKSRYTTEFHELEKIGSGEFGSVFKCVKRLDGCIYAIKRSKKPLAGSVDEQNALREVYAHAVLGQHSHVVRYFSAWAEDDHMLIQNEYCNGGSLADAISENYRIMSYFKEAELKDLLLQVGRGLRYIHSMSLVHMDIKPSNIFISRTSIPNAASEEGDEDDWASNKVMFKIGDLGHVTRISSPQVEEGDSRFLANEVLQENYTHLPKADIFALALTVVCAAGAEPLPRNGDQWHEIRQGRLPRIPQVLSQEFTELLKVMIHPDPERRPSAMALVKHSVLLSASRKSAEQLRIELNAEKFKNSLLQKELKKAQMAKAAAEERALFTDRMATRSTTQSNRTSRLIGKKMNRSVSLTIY
# T2 sequence (Q96SW2 whole entry): as the sequence (Q96SW2 whole entry) above
# T2 sequence (Q16531 whole entry partner): as the sequence (Q16531 whole entry partner) above
# IKZF2 = biological target: T3, IKZF2 (Homo sapiens, UniProt Q96SW2+Q9UKS7); test: Western-blot assay of substrate protein degradation in hPBMCs, IKZF2; format: cell-based; details: 24 hours of compound treatment, compounds tested at 50 nM and 500 nM (concentration of the table not stated)
# T3 construct: endogenous in cells; host or cells: hPBMCs (Milecell Biotechnologies)
# T3 sequence (Q9UKS7 whole entry): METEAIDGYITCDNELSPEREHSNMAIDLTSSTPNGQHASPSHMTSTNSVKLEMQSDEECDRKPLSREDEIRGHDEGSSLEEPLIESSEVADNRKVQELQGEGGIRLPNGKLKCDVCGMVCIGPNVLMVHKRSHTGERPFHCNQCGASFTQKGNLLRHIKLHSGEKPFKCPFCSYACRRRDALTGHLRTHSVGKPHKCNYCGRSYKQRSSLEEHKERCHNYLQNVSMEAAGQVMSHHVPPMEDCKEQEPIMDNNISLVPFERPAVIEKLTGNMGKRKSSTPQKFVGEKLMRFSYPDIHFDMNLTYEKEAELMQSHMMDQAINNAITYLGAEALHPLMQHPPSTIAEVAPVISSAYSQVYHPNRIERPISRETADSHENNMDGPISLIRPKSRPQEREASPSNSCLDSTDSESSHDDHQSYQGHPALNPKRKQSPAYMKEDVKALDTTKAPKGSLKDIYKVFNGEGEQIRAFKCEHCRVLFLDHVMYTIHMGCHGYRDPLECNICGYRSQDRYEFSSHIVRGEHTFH
# T3 sequence (Q96SW2 whole entry): as the sequence (Q96SW2 whole entry) above
# T3 sequence (Q16531 whole entry partner): as the sequence (Q16531 whole entry partner) above
# GSPT1 = biological target: T4, GSPT1 (Homo sapiens, UniProt P15170+Q96SW2); test: Western-blot assay of substrate protein degradation in hPBMCs, GSPT1; format: cell-based; details: 24 hours of compound treatment, compounds tested at 50 nM and 500 nM (concentration of the table not stated)
# T4 construct: endogenous in cells; host or cells: hPBMCs (Milecell Biotechnologies)
# T4 sequence (P15170 whole entry): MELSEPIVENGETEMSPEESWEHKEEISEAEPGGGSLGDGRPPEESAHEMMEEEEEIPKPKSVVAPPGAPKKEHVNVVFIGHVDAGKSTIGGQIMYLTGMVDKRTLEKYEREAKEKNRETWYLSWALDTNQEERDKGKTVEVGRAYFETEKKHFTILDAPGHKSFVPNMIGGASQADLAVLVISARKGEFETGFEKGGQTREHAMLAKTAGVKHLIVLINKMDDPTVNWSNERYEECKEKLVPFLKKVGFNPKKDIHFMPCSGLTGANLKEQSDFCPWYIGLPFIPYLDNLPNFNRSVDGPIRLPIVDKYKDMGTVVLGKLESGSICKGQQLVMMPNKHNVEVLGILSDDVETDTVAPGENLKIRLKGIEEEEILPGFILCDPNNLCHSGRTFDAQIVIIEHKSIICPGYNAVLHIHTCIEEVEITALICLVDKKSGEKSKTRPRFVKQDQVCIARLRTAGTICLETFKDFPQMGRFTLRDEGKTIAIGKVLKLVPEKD
# T4 sequence (Q96SW2 whole entry): as the sequence (Q96SW2 whole entry) above
# T4 sequence (Q16531 whole entry partner): as the sequence (Q16531 whole entry partner) above
# IKZF3 = biological target: T5, IKZF3 (Homo sapiens, UniProt Q96SW2+Q9UKT9); test: Western-blot assay of substrate protein degradation in hPBMCs, IKZF3; format: cell-based; details: 24 hours of compound treatment, compounds tested at 50 nM and 500 nM (concentration of the table not stated)
# T5 construct: endogenous in cells; host or cells: hPBMCs (Milecell Biotechnologies)
# NCI-H1975 = test: Tumor cell proliferation inhibition (CellTiter-Meiluncell Luminescent Cell Viability Assay), NCI-H1975; details: Homo sapiens, NCI-H1975, read-out: inhibitory activity (IC50, nM) against tumor cells proliferation, H1975
# [1] = biological target: T6, human Cereblon WT GST-tagged protein (Homo sapiens, UniProt Q96SW2); test: CRBN-binding affinity by HTRF (CEREBLON BINDING kit); details: HTRF inhibitory activity, CEREBLON BINDING kit; read-out: HTRF IC50
# T6 construct: purchased CISBIO 64BDCRBNPEH
# T6 sequence (Q96SW2 whole entry): as the sequence (Q96SW2 whole entry) above
# CK1α = biological target: T7, CK1α (Homo sapiens, UniProt P48729+Q96SW2); test: Western-blot assay of substrate protein degradation in hPBMCs, CK1α; format: cell-based; details: 24 hours of compound treatment, compounds tested at 50 nM and 500 nM (concentration of the table not stated)
# T7 construct: endogenous in cells; host or cells: hPBMCs (Milecell Biotechnologies)
# T7 sequence (P48729 whole entry): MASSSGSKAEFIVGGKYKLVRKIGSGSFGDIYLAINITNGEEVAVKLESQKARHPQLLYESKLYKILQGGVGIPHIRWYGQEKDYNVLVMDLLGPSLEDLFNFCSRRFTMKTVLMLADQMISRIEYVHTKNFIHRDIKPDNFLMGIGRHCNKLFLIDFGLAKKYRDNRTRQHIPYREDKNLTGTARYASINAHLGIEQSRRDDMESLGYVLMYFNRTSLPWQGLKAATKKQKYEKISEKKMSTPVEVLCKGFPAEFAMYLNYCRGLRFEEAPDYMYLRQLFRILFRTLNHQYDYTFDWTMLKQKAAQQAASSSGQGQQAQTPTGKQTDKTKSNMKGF
# T7 sequence (Q96SW2 whole entry): as the sequence (Q96SW2 whole entry) above
# T7 sequence (Q16531 whole entry partner): as the sequence (Q16531 whole entry partner) above
# SR = test: Tumor cell proliferation inhibition (CellTiter-Meiluncell Luminescent Cell Viability Assay), SR; details: Homo sapiens, read-out: inhibitory activity (IC50, nM) against tumor cells proliferation, SR
# Protocol: as §1, §3, §2
# TMD8 = test: Tumor cell proliferation inhibition (CellTiter-Meiluncell Luminescent Cell Viability Assay), TMD8; details: Homo sapiens, TMD8, read-out: inhibitory activity (IC50, nM) against tumor cells proliferation, TMD8
IC50 (Jurkat),IC50 (MM.1S),IC50 (NCI-H1975),IC50 [1],IC50 (SR),IC50 (TMD8),SMILES,IKZF 1 substrate protein remaining % (IKZF1),Weel substrate protein remaining % (WEE1),IKZF2 substrate protein remaining % (IKZF2),GSPT1 substrate protein remaining % (GSPT1),IKZF3 substrate protein remaining % (IKZF3),CK1a substrate protein remaining % (CK1α)
1 to 5 nM,< 1 nM,1 to 5 nM,500 to 1000 nM,5 to 10 nM,,"O=C1CCC(N2Cc3cc(CN4CC=C(c5ncnc6sc(-c7ccccc7)cc56)CC4)ccc3C2=O)C(=O)N1 (stereo not shown) [GT-05101, 3-(1-oxo-5-((4-(6-phenylthieno[2,3-d]pyrimidin-4-yl)-3,6-dihydropyridin-1(2H)-yl)methyl)isoindolin-2-yl)piperidine-2,6-dione]",A (0% ≤ substrate protein remaining % ≤ 80%),A (0% ≤ substrate protein remaining % ≤ 80%),A (0% ≤ substrate protein remaining % ≤ 80%),A (0% ≤ substrate protein remaining % ≤ 80%),A (0% ≤ substrate protein remaining % ≤ 80%),B (80%< substrate protein remaining %≤ 100%)
1 to 5 nM,< 1 nM,1 to 5 nM,< 500 nM,10 to 50 nM,,"CC(C)c1cc2c(C3=CCN(Cc4ccc5c(c4)CN(C4CCC(=O)NC4=O)C5=O)CC3)ncnc2s1 (stereo not shown) [GT-04935, 3-(5-((4-(6-isopropylthieno[2,3-d]pyrimidin-4-yl)-3,6-dihydropyridin-1(2H)-yl)methyl)-1-oxoisoindolin-2-yl)piperidine-2,6-dione]",A (0% ≤ substrate protein remaining % ≤ 80%),A (0% ≤ substrate protein remaining % ≤ 80%),A (0% ≤ substrate protein remaining % ≤ 80%),A (0% ≤ substrate protein remaining % ≤ 80%),A (0% ≤ substrate protein remaining % ≤ 80%),A (0% ≤ substrate protein remaining % ≤ 80%)
50 to 100 nM,1 to 5 nM,50 to 100 nM,< 500 nM,,,"O=C1CCC(N2Cc3cc(CN4CCC(c5noc6ccccc56)CC4)ccc3C2=O)C(=O)N1 (stereo not shown) [GT-04907, 3-(5-((4-(benzo[d]isoxazol-3-yl)piperidin-1-yl)methyl)-1-oxoisoindolin-2-yl)piperidine-2,6-dione]",A (0% ≤ substrate protein remaining % ≤ 80%),A (0% ≤ substrate protein remaining % ≤ 80%),A (0% ≤ substrate protein remaining % ≤ 80%),A (0% ≤ substrate protein remaining % ≤ 80%),A (0% ≤ substrate protein remaining % ≤ 80%),B (80%< substrate protein remaining %≤ 100%)
,1 to 5 nM,,500 to 1000 nM,,10 to 50 nM,"O=C1CCC(N2Cc3cc(CN4CCN(c5nc(N6CCCCC6)nc6c5SCC6)CC4)ccc3C2=O)C(=O)N1 (stereo not shown) [GT-05380, 3-(1-oxo-5-((4-(2-(piperidin-1-yl)-6,7-dihydrothieno[3,2-d]pyrimidin-4-yl)piperazin-1-yl)methyl)isoindolin-2-yl)piperidine-2,6-dione]",A (0% ≤ substrate protein remaining % ≤ 80%),A (0% ≤ substrate protein remaining % ≤ 80%),A (0% ≤ substrate protein remaining % ≤ 80%),A (0% ≤ substrate protein remaining % ≤ 80%),A (0% ≤ substrate protein remaining % ≤ 80%),A (0% ≤ substrate protein remaining % ≤ 80%)
,1 to 5 nM,,500 to 1000 nM,,10 to 50 nM,"O=C1CCC(N2Cc3cc(CN4CCN(c5n[nH]c6cc(F)ccc56)CC4)ccc3C2=O)C(=O)N1 (stereo not shown) [GT-05264, 3-(5-((4-(6-fluoro-1H-indazol-3-yl)piperazin-1-yl)methyl)-1-oxoisoindolin-2-yl)piperidine-2,6-dione]",A (0% ≤ substrate protein remaining % ≤ 80%),A (0% ≤ substrate protein remaining % ≤ 80%),A (0% ≤ substrate protein remaining % ≤ 80%),A (0% ≤ substrate protein remaining % ≤ 80%),A (0% ≤ substrate protein remaining % ≤ 80%),A (0% ≤ substrate protein remaining % ≤ 80%)
1 to 5 nM,< 1 nM,1 to 5 nM,< 500 nM,5 to 10 nM,,"O=C1CCC(N2Cc3cc(CN4CC=C(c5cccc6c(F)cccc56)CC4)ccc3C2=O)C(=O)N1 (stereo not shown) [GT-04902, 3-(5-((4-(5-fluoronaphthalen-1-yl)-3,6-dihydropyridin-1(2H)-yl)methyl)-1-oxoisoindolin-2-yl)piperidine-2,6-dione]",A (0% ≤ substrate protein remaining % ≤ 80%),A (0% ≤ substrate protein remaining % ≤ 80%),A (0% ≤ substrate protein remaining % ≤ 80%),A (0% ≤ substrate protein remaining % ≤ 80%),A (0% ≤ substrate protein remaining % ≤ 80%),A (0% ≤ substrate protein remaining % ≤ 80%)
100 to 500 nM,100 to 500 nM,500 to 1000 nM,,,,"O=C1CCC(N2C(=O)c3ccc(CN4CCN(c5cccc6sccc56)CC4)cc3C2=O)C(=O)N1 (stereo not shown) [GT-04915, 5-((4-(benzo[b]thiophen-4-yl)piperazin-1-yl)methyl)-2-(2,6-dioxopiperidin-3-yl)isoindoline-1,3-dione]",A (0% ≤ substrate protein remaining % ≤ 80%),A (0% ≤ substrate protein remaining % ≤ 80%),A (0% ≤ substrate protein remaining % ≤ 80%),A (0% ≤ substrate protein remaining % ≤ 80%),A (0% ≤ substrate protein remaining % ≤ 80%),A (0% ≤ substrate protein remaining % ≤ 80%)
,5 to 10 nM,,< 500 nM,,10 to 50 nM,"O=C1CCC(N2Cc3cc(CN4CC=C(c5ncnc6sc7c(c56)CCCC7)CC4)ccc3C2=O)C(=O)N1 (stereo not shown) [GT-05266, 3-(1-oxo-5-((4-(5,6,7,8-tetrahydrobenzo[4,5]thieno[2,3-d]pyrimidin-4-yl)-3,6-dihydropyridin-1(2H)-yl)methyl)isoindolin-2-yl)piperidine-2,6-dione]",A (0% ≤ substrate protein remaining % ≤ 80%),A (0% ≤ substrate protein remaining % ≤ 80%),A (0% ≤ substrate protein remaining % ≤ 80%),A (0% ≤ substrate protein remaining % ≤ 80%),A (0% ≤ substrate protein remaining % ≤ 80%),A (0% ≤ substrate protein remaining % ≤ 80%)
,50 to 100 nM,,< 500 nM,,,"Cc1nc(C2=CCN(Cc3ccc4c(c3)CN(C3CCC(=O)NC3=O)C4=O)CC2)c2c3c(sc2n1)CCC3 (stereo not shown) [GT-05211, 3-(5-((4-(2-methyl-6,7-dihydro-5H-cyclopenta[4,5]thieno[2,3-d]pyrimidin-4-yl)-3,6-dihydropyridin-1(2H)-yl)methyl)-1-oxoisoindolin-2-yl)piperidine-2,6-dione]",A (0% ≤ substrate protein remaining % ≤ 80%),A (0% ≤ substrate protein remaining % ≤ 80%),A (0% ≤ substrate protein remaining % ≤ 80%),A (0% ≤ substrate protein remaining % ≤ 80%),A (0% ≤ substrate protein remaining % ≤ 80%),A (0% ≤ substrate protein remaining % ≤ 80%)

SMILES,IC50 (Jurkat),IC50 (MM.1S),IC50 (NCI-H1975),IC50 [1],IC50 (SR),IC50 (TMD8),IKZF 1 substrate protein remaining % (IKZF1),Weel substrate protein remaining % (WEE1),IKZF2 substrate protein remaining % (IKZF2),GSPT1 substrate protein remaining % (GSPT1),IKZF3 substrate protein remaining % (IKZF3),CK1a substrate protein remaining % (CK1α)
"O=C1CCC(N2Cc3cc(CN4CCC(n5cnc6cc(F)ccc65)CC4)ccc3C2=O)C(=O)N1 (stereo not shown) [GT-04905, 3-(5-((4-(5-fluoro-1H-benzo[d]imidazol-1-yl)piperidin-1-yl)methyl)-1-oxoisoindolin-2-yl)piperidine-2,6-dione]",100 to 500 nM,1 to 5 nM,100 to 500 nM,< 500 nM,,,B (80%< substrate protein remaining %≤ 100%),B (80%< substrate protein remaining %≤ 100%),A (0% ≤ substrate protein remaining % ≤ 80%),A (0% ≤ substrate protein remaining % ≤ 80%),A (0% ≤ substrate protein remaining % ≤ 80%),B (80%< substrate protein remaining %≤ 100%)
